Measurements taken from US8716237B2, “Methods for the treatment or prevention of hemorrhagic conditions” (University of Rochester, priority 2007, dated 2014).

Legend:
PAI-1 [1] = test: PAI-1 mRNA expression in A549 cells (Q-PCR); assay type: cell-based, human; settings: SB203580 pretreatment (1 μM, 2 hours)
Description: (§1) Cells were cultured on 12-well plates and transfected with various expression plasmids, as described in Examples 1-15 and the Brief Description of the Drawings. All transient transfections were carried out in triplicate using TransIT-LT1 reagent (Minis) following the manufacturer's instructions. […] Transfected cells were pretreated with or without chemical inhibitors including SB203580 (1 μM) for 2 hours. S.p. or pneumolysin was then added to the transfected cells 42 hours after transfection. After 5 hours, the cells were harvested for either RNA extraction and real-time quantitative PCR analysis as described in the Examples or luciferase assay. […]
Total RNA was isolated with TRIzol reagent (Invitrogen) by following the manufacturer's instructions. Real-Time Quantitative RT-PCR analysis of PAI-1 and CYLD were performed as described in Jono et al., “NF-κB Is Essential for Induction of CYLD, the Negative Regulator of NF-κB: Evidence for a Novel Inducible Autoregulatory Feedback Pathway,” J. Biol. Chem. 279:36171-4 (2004), which is hereby incorporated by reference in its entirety. […] Relative quantity of PAI-1 mRNA was obtained using comparative CT Method and was normalized by Cyclophilin and GAPDH as an endogenous control for human and mouse, respectively (Applied Biosystems).

PAI-1 [2] = test: PAI-1 mRNA expression in mouse embryonic fibroblasts (Q-PCR); assay type: cell-based; settings: Cyld−/− MEF cells; pretreatment with SB203580
Description: as §1, with “assay. Luciferase activity was normalized with respect to β-galactosidase activity using the Galacton-Plus substrate system (Tropix) following manufacturer's instruction. In all co-transfections with expression plasmids of signaling molecules, an empty vector was used as a control.” for “assay.”
Total RNA was isolated with TRIzol reagent (Invitrogen) by following the manufacturer's instructions. Real-Time Quantitative RT-PCR analysis of PAI-1 and CYLD were performed as described in Jono et al., “NF-κB Is Essential for Induction of CYLD, the Negative Regulator of NF-κB: Evidence for a Novel Inducible Autoregulatory Feedback Pathway,” J. Biol. Chem. 279:36171-4 (2004), which is hereby incorporated by reference in its entirety. […]

## C[S+]([O-])c1ccc(-c2nc(-c3ccncc3)c(-c3ccc(F)cc3)[nH]2)cc1 (stereo not drawn) [SB203580]
PAI-1 [1]
  S. pneumoniae-induced PAI-1 expression: greatly reduced S. pneumoniae-induced PAI-1 expression
PAI-1 [2]
  PAI-1 expression in cells treated with PLY: reduced PAI-1 expression
  PAI-1 expression in cells treated with S. pneumoniae: reduced PAI-1 expression
